System: P12-Ichikawa
Test: cell viability relative to DMSO control; higher = less cytotoxic
Details: 48 h
Procedure, shortened: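 NOMO1, SEM and P12-Ichikawa leukemia cells spent at least four passages adapting to each medium before use. They were seeded at 500 cells/well (NOMO1, SEM) or 1000 cells/well (P12-Ichikawa) in 5 μl in 1536-well plates and pin-dosed with library compounds in DMSO at 11 threefold steps from 47 μM down to 0.79 nM. After 48 h at 37°C, CellTiter-Glo One luminescence was read. Viability is reported as a percentage of the DMSO wells on each plate, with cell-free wells as background.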

[1] = HPLM + 10% dialyzed FBS, 0.000781 µM
[2] = HPLM + 10% dialyzed FBS, 0.00234 µM
[3] = HPLM + 10% dialyzed FBS, 0.00702 µM
[4] = HPLM + 10% dialyzed FBS, 0.0211 µM
[5] = HPLM + 10% dialyzed FBS, 0.0632 µM
[6] = HPLM + 10% dialyzed FBS, 0.19 µM
[7] = HPLM + 10% dialyzed FBS, 0.569 µM
[8] = HPLM + 10% dialyzed FBS, 1.71 µM
[9] = HPLM + 10% dialyzed FBS, 5.12 µM
[10] = HPLM + 10% dialyzed FBS, 15.4 µM
[11] = HPLM + 10% dialyzed FBS, 46.1 µM
[12] = RPMI 5 mM glucose + 10% FBS, 0.000781 µM
[13] = RPMI 5 mM glucose + 10% FBS, 0.00234 µM
[14] = RPMI 5 mM glucose + 10% FBS, 0.00702 µM
[15] = RPMI 5 mM glucose + 10% FBS, 0.0211 µM
[16] = RPMI 5 mM glucose + 10% FBS, 0.0632 µM
[17] = RPMI 5 mM glucose + 10% FBS, 0.19 µM
[18] = RPMI 5 mM glucose + 10% FBS, 0.569 µM
[19] = RPMI 5 mM glucose + 10% FBS, 1.71 µM
[20] = RPMI 5 mM glucose + 10% FBS, 5.12 µM
[21] = RPMI 5 mM glucose + 10% FBS, 15.4 µM
[22] = RPMI 5 mM glucose + 10% FBS, 46.1 µM
[23] = RPMI 5 mM glucose + 10% dialyzed FBS, 0.000781 µM
[24] = RPMI 5 mM glucose + 10% dialyzed FBS, 0.00234 µM
[25] = RPMI 5 mM glucose + 10% dialyzed FBS, 0.00702 µM
[26] = RPMI 5 mM glucose + 10% dialyzed FBS, 0.0211 µM
[27] = RPMI 5 mM glucose + 10% dialyzed FBS, 0.0632 µM
[28] = RPMI 5 mM glucose + 10% dialyzed FBS, 0.19 µM
[29] = RPMI 5 mM glucose + 10% dialyzed FBS, 0.569 µM
[30] = RPMI 5 mM glucose + 10% dialyzed FBS, 1.71 µM
[31] = RPMI 5 mM glucose + 10% dialyzed FBS, 5.12 µM
[32] = RPMI 5 mM glucose + 10% dialyzed FBS, 15.4 µM
[33] = RPMI 5 mM glucose + 10% dialyzed FBS, 46.1 µM

SMILES	cell viability [1] [%]	cell viability [2] [%]	cell viability [3] [%]	cell viability [4] [%]	cell viability [5] [%]	cell viability [6] [%]	cell viability [7] [%]	cell viability [8] [%]	cell viability [9] [%]	cell viability [10] [%]	cell viability [11] [%]	cell viability [12] [%]	cell viability [13] [%]	cell viability [14] [%]	cell viability [15] [%]	cell viability [16] [%]	cell viability [17] [%]	cell viability [18] [%]	cell viability [19] [%]	cell viability [20] [%]	cell viability [21] [%]	cell viability [22] [%]	cell viability [23] [%]	cell viability [24] [%]	cell viability [25] [%]	cell viability [26] [%]	cell viability [27] [%]	cell viability [28] [%]	cell viability [29] [%]	cell viability [30] [%]	cell viability [31] [%]	cell viability [32] [%]	cell viability [33] [%]
C[C@@H]1CC[C@@]2(OC1)O[C@H]3C[C@H]4[C@@H]5C/C=C6/C[C@H](CC[C@]6(C)[C@H]5CC[C@]4(C)[C@H]3[C@@H]2C)O[C@@H]7O[C@H](CO)[C@@H](O[C@@H]8O[C@@H](C)[C@H](O)[C@@H](O)[C@H]8O)[C@H](O)[C@H]7O[C@@H]9O[C@@H](C)[C@H](O)[C@@H](O)[C@H]9O	124	128	119	131	129	130	136	134	132	116	7.3	–	–	–	–	–	–	–	–	–	–	–	–	–	–	–	–	–	–	–	–	–	–
Clc1ccc(C2(c3ccc(-c4cn[nH]c4)cc3)CCNCC2)cc1	91.3	94.4	101	96.8	101	98	92.3	89.3	73.2	57.5	59.9	86.9	94.2	85.9	91	89	83.1	78.8	75.4	65.9	43.1	44.1	91	92.2	90.7	87.5	95	93.5	91.8	78.7	68.5	49.7	49.7
CNC(=O)c1cccc(-c2ccc3c(N4CCOC[C@@H]4C)nc(N4CCOC[C@@H]4C)nc3n2)c1	104	106	95	92.4	87.1	80.2	78.8	67.7	65.6	64.8	62.4	93.7	98.6	86.7	75.4	67.2	57.2	55.7	54.3	54.9	48.5	44.5	98.4	102	89.5	80.6	72.8	61.8	64.6	58.1	49.8	44.7	39.9
CCOC(=O)Nc1ccc(NCc2ccc(F)cc2)cc1N	112	116	116	121	115	110	107	112	101	98.6	78.6	113	122	122	109	122	114	118	114	109	107	102	118	113	122	118	110	121	113	111	98.3	103	87.4
COc1nc(-c2ccc3c(c2)OCO3)n(-c2ccc(NC(=O)CSc3ccccc3)cc2)n1	109	108	111	107	108	110	112	104	104	103	108	107	116	113	118	118	113	113	103	102	97.2	92.5	130	107	119	107	116	104	120	108	95.9	108	85.6
O=C1c2c(O)cccc2[C@H]([C@@H]2O[C@H](CO)[C@@H](O)[C@H](O)[C@H]2O)c2cc(CO)cc(O)c21	91	95.8	95.1	107	107	98.7	106	99.4	103	98.4	103	93.9	93.3	102	109	105	109	108	106	101	106	106	91	96.4	90.9	96.8	106	95.2	97	95.7	103	99.4	99
C[C@H]([C@H](O)CCC(C)(C)O)[C@H]1CC[C@@]2(O)C/3=C/C(=O)[C@@H]4C[C@@H](O)[C@@H](O)C[C@]4(C)[C@H]3CC[C@]12C	–	–	–	–	–	–	–	–	–	–	–	–	–	–	–	–	–	–	–	–	–	–	109	125	121	124	131	122	119	121	120	107	113
CO[C@H]1C[C@@H]2CC[C@@H](C)[C@@](O)(O2)C(=O)C(=O)N2CCCC[C@H]2C(=O)O[C@H]([C@H](C)C[C@@H]2CC[C@@H](OP(C)(C)=O)[C@H](OC)C2)CC(=O)[C@H](C)/C=C(\C)[C@@H](O)[C@@H](OC)C(=O)[C@H](C)C[C@H](C)/C=C/C=C/C=C/1C	–	–	–	–	–	–	–	–	–	–	–	119	138	121	126	118	97.7	122	96.3	88.4	100	81.4	–	–	–	–	–	–	–	–	–	–	–
CN(N=O)C(=O)N[C@H]1C(O)OC(CO)[C@@H](O)[C@@H]1O (stereo not given in full)	91.5	84.9	82.8	84.2	89.2	81.9	85.8	82.8	84.2	60.5	83	83.3	84.2	76.3	75.8	81.3	85.2	74.2	87.6	72.8	78.5	83.7	70.2	81.9	83.9	74.1	79.6	76.6	80.2	81.7	71.3	71	77.5
O=C1NC(=O)[C@@H](c2cn3c4c(cccc24)CCC3)[C@@H]1c1c[nH]c2ccccc12	99	96.4	103	98.7	105	103	93.8	56	23.3	20.7	18.5	93.1	111	102	107	107	102	90.9	48.4	11.9	17.9	14.3	105	105	99.9	111	117	113	109	78	34.6	30	33.1
CCC[C@@H]1C[C@@H](C(=O)N[C@@H]([C@H]2O[C@H](SC)[C@H](O)[C@@H](O)[C@H]2O)[C@@H](C)O)N(C)C1.Cl	119	113	122	111	122	125	111	98.8	97.8	106	100	119	114	106	112	119	123	89.9	83	96	102	101	122	117	128	140	145	108	66.4	70	112	95.9	94.4
O=[N+]([O-])c1cn2c(n1)OC[C@@H](OCc1ccc(OC(F)(F)F)cc1)C2	124	126	121	120	120	111	113	111	112	118	110	124	125	138	141	131	132	127	118	105	111	121	120	116	111	126	115	113	113	100	101	109	107
C[N]1C=NC=C1[C@@](N)(C2=CC=C(Cl)C=C2)C3=CC=C4N(C)C(=O)\C=C(\C5=CC=CC(=C5)Cl)C4=C3	111	110	113	106	109	97.4	82.4	79.2	73	50.1	27.9	110	113	113	106	100	81.2	82.9	69	67.7	42.1	32.3	105	114	115	100	107	92.2	85.5	72.8	69.6	59.9	39.3
COc1ccc(Cc2nccc3cc(OC)c(OC)cc23)cc1OC	122	120	117	120	125	122	119	116	115	107	96.5	–	–	–	–	–	–	–	–	–	–	–	121	114	126	126	123	126	121	119	105	111	78.5
